Source: paper PMC10774418, “A cyclin D1 intrinsically disordered domain accesses modified histone motifs to govern gene transcription” (Oncogenesis, 2024)

Assays:
[1] = tested on: γ-H2AX in cyclin D1^-/- rescue MEFs; test: γ-H2AX abundance / H2A Ser139 phosphorylation after doxorubicin; type: cell-based, mouse; conditions: cyclin D1^WT rescued cyclin D1^-/- MEFs, p20 and p21, Western blot
Procedure: Whole-cell lysates (50 μg) were separated by 10% SDS-PAGE gel, and the proteins were transferred to nitrocellulose membrane for Western blotting using the following antibodies: anti-FLAG antibody (M2 Aldrich, #F1804, St. Louis, MO), anti-GST (Cell Signaling, #2624, Danvers, MA), anti-β-tubulin (Santa Cruz Biotechnology, #sc-55529, Santa Cruz, CA), anti-Vinculin (Sigma-Aldrich, #V9131 St. Louis, MO), Topoisomerase 2 A (Santa Cruz Biotechnology, #sc-365916, Santa Cruz, CA), Histone 2B Serine 14 P (Santa Cruz Biotechnology, #sc-31671, Santa Cruz, CA), Histone 2B (Santa Cruz Biotechnology, #sc-10808, Santa Cruz, CA), γH2A.X (Cell Signaling, #9718, Danvers, MA) and H2A.X (Cell Signaling, #2595, Danvers, MA).

[2] = tested on: cyclin D1-/- 3T3 rescue cells; test: Etoposide sensitivity (cell viability); type: cell-based, mouse; conditions: 5, 10 µM, 24 h, N=6
[3] = tested on: CDK4; test: Mammalian two-hybrid, 293 T; type: cell-based, human; conditions: 293 T cells, Fig. S7
Procedure: Mammalian two-hybrid was conducted following the manufacturer’s instruction (Promega, Madison, WI). The human CDK4 cDNA was cloned into pBIND vector, and the human cyclin D1 cDNA (wild type or mutants) was cloned into pACT vector to generate fusion proteins with the DNA-binding domain of Gal4 (Gal4-CDK4), and the activation domain of VP16 (VP16-cyclin D1), respectively. Gal4-CDK4, VP16-cyclin D1 and pG5-Luc reporter containing five copies of Gal4 binding sites upstream of a minimal TATA box and the firefly luciferase gene (Promega) were co-transfected into MCF-7 or HEK-293T cells with Superfect reagent 48 h after transfection, the cells were lysed, and the amount of luciferase activity was quantitated. Transfection efficiency was normalized using renilla luciferase.

CDK4 binding [3]	Compound	also measured
maintained enhanced binding	E278A: cyclin D1 point mutant within the E region	
maintained enhanced binding	E280A: cyclin D1 point mutant within the E region	

The remaining lines, values behind:

Compound	CDK4 binding [3]	also measured
COc1cccc2c1C(=O)c1c(O)c3c(c(O)c1C2=O)C[C@@](O)(C(=O)CO)C[C@@H]3O[C@H]1C[C@H](N)[C@H](O)[C@H](C)O1 [doxorubicin]		γ-H2AX abundance [1]: increased
COc1cc([C@@H]2c3cc4c(cc3[C@@H](O[C@@H]3O[C@@H]5CO[C@@H](C)O[C@H]5[C@H](O)[C@H]3O)[C@H]3COC(=O)[C@H]23)OCO4)cc(OC)c1O [etoposide]		sensitivity to etoposide ([2]; cyclin D1 rescued cells): more sensitive; change in sensitivity to etoposide ([2]; upon deletion of the E domain): modest but significant reduction in sensitivity
E278/280 A: cyclin D1 double point mutant within the E region	maintained enhanced binding	
